In PubChem BioAssay (NCI) one finds GI50 and TGI data, which are given here for 9 molecules.

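Method: 48-hour compound exposure of cells in 96-well plates, five concentrations, linear interpolation of endpoints. GI50 = concentration required for 50% inhibition of growth. At the TGI there is no net growth.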

Test systems include A549 NSCLC; CAKI-1 renal; HS 578T breast; LOX IMVI melanoma; OVCAR-3 ovarian; OVCAR-8 ovarian; SK-OV-3 ovarian; SN12C renal; U251 CNS; UACC-257 melanoma.
Experiment in all cases: inhibition of tumour cell growth, NCI panel, 48 h

Turning to `O=C1/C(=C/c2ccc(Cl)cc2)CN(C(=O)CCN2CCC(=NO)CC2)C/C1=C\c1ccc(Cl)cc1`, the GI50 in the assay with A549 NSCLC is 1.65 µM; in the assay on CAKI-1 renal it was 0.649 µM; with HS 578T breast, 1.27 µM; in the assay with LOX IMVI melanoma, 0.224 µM; with OVCAR-3 ovarian, 0.628 µM; in the assay on OVCAR-8 ovarian it was 0.823 µM. Further, the GI50 in the assay with SK-OV-3 ovarian is 1.94 µM; in the assay with SN12C renal it was 0.637 µM; in the assay with U251 CNS it was 0.53 µM; with UACC-257 melanoma, 1.67 µM. Besides, the TGI amounted to 3.77 µM with A549 NSCLC; 1.85 µM in the assay on CAKI-1 renal; 6.43 µM in the assay with HS 578T breast; 0.57 µM with LOX IMVI melanoma; 1.78 µM in the assay on OVCAR-3 ovarian; 2.62 µM with OVCAR-8 ovarian. For the same molecule, the TGI in the assay with SK-OV-3 ovarian was determined as 4.21 µM; in the assay with SN12C renal, 1.68 µM; in the assay with U251 CNS, 1.28 µM; in the assay on UACC-257 melanoma it was 3.43 µM.

In the case of `O=C(c1ccco1)c1nc2cc(C(F)(F)F)ccc2[n+]([O-])c1C(F)(F)F`, the GI50 in the assay on A549 NSCLC was greater than 100 µM; in the assay with CAKI-1 renal, greater than 100 µM; in the assay on HS 578T breast it was 51.9 µM; in the assay with LOX IMVI melanoma it was 40.1 µM; in the assay on OVCAR-3 ovarian, 30.5 µM; in the assay with OVCAR-8 ovarian, greater than 100 µM. Further, the GI50 with SK-OV-3 ovarian is greater than 100 µM; in the assay on SN12C renal it was 65.1 µM; in the assay with U251 CNS, 37 µM; with UACC-257 melanoma it was 69.8 µM. In addition, the TGI with A549 NSCLC, in the assay with CAKI-1 renal, with HS 578T breast, with LOX IMVI melanoma, in the assay with OVCAR-3 ovarian and in the assay with OVCAR-8 ovarian was greater than 100 µM throughout. The TGI with SK-OV-3 ovarian, in the assay on SN12C renal, in the assay on U251 CNS and in the assay on UACC-257 melanoma was greater than 100 µM each time.

Turning to `COc1cc2cnc(-c3ccccc3)cc2cc1OC`, the TGI is 85.3 µM in the assay on A549 NSCLC; 62.4 µM in the assay with CAKI-1 renal; 53.8 µM in the assay on HS 578T breast; 85.6 µM with OVCAR-3 ovarian; greater than 100 µM in the assay with OVCAR-8 ovarian; greater than 100 µM in the assay on SK-OV-3 ovarian. The TGI with SN12C renal came out at 22.2 µM; in the assay with U251 CNS, 56.5 µM; with UACC-257 melanoma, 53.3 µM.

As to `Oc1ccc2ccccc2c1N=Nc1ccc(Cl)cc1`, the TGI was greater than 100 µM in the assay with A549 NSCLC; greater than 100 µM with CAKI-1 renal; greater than 100 µM in the assay with HS 578T breast; 78.7 µM in the assay on LOX IMVI melanoma; greater than 100 µM with OVCAR-3 ovarian; greater than 100 µM with OVCAR-8 ovarian. Also, the TGI in the assay on SK-OV-3 ovarian, with SN12C renal, in the assay on U251 CNS and with UACC-257 melanoma was greater than 100 µM throughout.

`CC(C)C[CH2][Ge]([CH2]CC(C)C)([CH2]CC(C)C)[CH2]CC(C)C`: the GI50 in the assay with A549 NSCLC, with CAKI-1 renal, in the assay with HS 578T breast, with LOX IMVI melanoma, in the assay on OVCAR-3 ovarian and in the assay on OVCAR-8 ovarian was greater than 100 µM each time. Moreover, the GI50 in the assay with SK-OV-3 ovarian, in the assay on SN12C renal, in the assay on U251 CNS and in the assay with UACC-257 melanoma was greater than 100 µM in each case. Also, the TGI in the assay with A549 NSCLC, with CAKI-1 renal, in the assay with HS 578T breast, in the assay with LOX IMVI melanoma, in the assay with OVCAR-3 ovarian and with OVCAR-8 ovarian was greater than 100 µM throughout. The TGI in the assay with SK-OV-3 ovarian, in the assay with SN12C renal, in the assay with U251 CNS and in the assay on UACC-257 melanoma was greater than 100 µM each time.

For `Cc1cc(NCc2cc(Nc3ccnc4cc(Cl)ccc34)ccc2F)nc(N2CCSCC2)n1`, the GI50 in the assay on A549 NSCLC was 2.92 µM; with CAKI-1 renal it was 1.51 µM; in the assay with HS 578T breast, 1.77 µM; in the assay with LOX IMVI melanoma, 1.47 µM; in the assay on OVCAR-3 ovarian it was 1.59 µM; in the assay on OVCAR-8 ovarian, 2.54 µM. In addition, the GI50 with SK-OV-3 ovarian was 1.82 µM; in the assay with U251 CNS, 1.76 µM. Also, the TGI was 21.8 µM with A549 NSCLC; 3.19 µM with CAKI-1 renal; 4.98 µM with HS 578T breast; 2.79 µM with LOX IMVI melanoma; 2.93 µM with OVCAR-3 ovarian; 9.23 µM with OVCAR-8 ovarian. Further, the results for the TGI in the assay with SK-OV-3 ovarian and in the assay on U251 CNS were 3.64 µM and 3.28 µM, respectively.

As to `Fc1ccc([C@@H]2CCNC[C@H]2COc2ccc3c(c2)OCO3)cc1`, the GI50 in the assay with A549 NSCLC was 14.6 µM; with CAKI-1 renal, 12.1 µM; with HS 578T breast, 19.8 µM; in the assay on OVCAR-3 ovarian, 10.5 µM; in the assay with SK-OV-3 ovarian it was 12.7 µM; with SN12C renal, 5.79 µM. Moreover, the GI50 is 8.18 µM in the assay on U251 CNS and 11.2 µM in the assay on UACC-257 melanoma. For the same molecule, the TGI was determined as 29 µM in the assay with A549 NSCLC; 25.3 µM in the assay on CAKI-1 renal; 62.3 µM in the assay with HS 578T breast; 22.8 µM in the assay with OVCAR-3 ovarian; 25.7 µM with SK-OV-3 ovarian; 18.9 µM in the assay with SN12C renal. Also, the TGI in the assay with U251 CNS was found to be 21.1 µM; with UACC-257 melanoma, 24.6 µM.

Take `CCCCCCCCNC(C)C(O)c1ccc(SC(C)C)cc1` (stereo unspecified): the GI50 in the assay on CAKI-1 renal is 1.54 µM; with HS 578T breast, 1.98 µM; in the assay with LOX IMVI melanoma it was 1.54 µM; with OVCAR-3 ovarian, 1.98 µM; with SK-OV-3 ovarian it was 1.63 µM; in the assay on SN12C renal, 1.57 µM. Also, the TGI in the assay on CAKI-1 renal was determined as 3.08 µM; with HS 578T breast, 4.61 µM; with LOX IMVI melanoma, 2.92 µM; in the assay on OVCAR-3 ovarian it was 3.46 µM; with SK-OV-3 ovarian, 2.98 µM; in the assay on SN12C renal it was 3.13 µM.

Regarding `COc1ccc(/C=C\c2cc(OC)c(OC)c(OC)c2)cc1OCC(=O)Nc1nc2ccccc2s1`, the GI50 with A549 NSCLC is 0.31 µM; in the assay with CAKI-1 renal it was 0.309 µM; in the assay with HS 578T breast, 26 µM; with LOX IMVI melanoma, 0.0808 µM; with OVCAR-8 ovarian, 0.257 µM; in the assay with SK-OV-3 ovarian, 0.374 µM. Further, the GI50 in the assay on SN12C renal was 0.431 µM; in the assay with U251 CNS, 0.0416 µM; in the assay on UACC-257 melanoma, 11 µM. Also, the TGI in the assay on A549 NSCLC is greater than 100 µM; with CAKI-1 renal it was greater than 35.8 µM; in the assay with HS 578T breast, greater than 100 µM; in the assay with LOX IMVI melanoma it was greater than 100 µM; in the assay with OVCAR-8 ovarian, greater than 100 µM; in the assay with SK-OV-3 ovarian, greater than 100 µM. For the same molecule, the figures for the TGI in the assay on SN12C renal, in the assay on U251 CNS and with UACC-257 melanoma were greater than 100 µM, greater than 32.9 µM and greater than 100 µM, respectively.
